# Laboratory results published in patent US8680133B2, “Alkyl indole-3-carbinol-derived antitumor agents” (The Ohio State University Research Foundation, priority 2009, dated 2014).
# What was measured:
# [1] = system: BT-549; experiment: NCI60 screening, Breast Cancer, BT-549; assay type: cell-based, human
# [2] = system: SF-295; experiment: NCI60 screening, CNS Cancer, SF-295; assay type: cell-based, human
# [3] = system: MDA-MB-231/ATCC; experiment: NCI60 screening, Breast Cancer, MDA-MB-231/ATCC; assay type: cell-based, human
# [4] = system: HCC-2998; experiment: NCI60 screening, Colon Cancer, HCC-2998; assay type: cell-based, human
# [5] = system: SK-OV-3; experiment: NCI60 screening, Ovarian Cancer, SK-OV-3; assay type: cell-based, human
# [6] = system: MDA-MB-435; experiment: NCI60 screening, Melanoma, MDA-MB-435; assay type: cell-based, human
# [7] = system: OVCAR-8; experiment: NCI60 screening, Ovarian Cancer, OVCAR-8; assay type: cell-based, human
# [8] = Hematology, serum chemistry, liver weight and food consumption of mice fed the OSU-A9M diet; assay type: in vivo
# Description: Further supporting a lack of toxicity with the experimental diet is a preservation of body weight (and liver weight) of mice sacrificed at the conclusion of the 6-week treatment period. 1.3±0.1 g (3.9±0.5%) in drug-treated mice vs. 1.5±0.3 g (4.3±0.7%) in controls; liver percent body weight in parentheses following absolute weight, means±SD, n=7, P=0.1 and 0.5 for absolute and relative values. There was no significant difference in the amount of control or experimental diet consumed by the mice [2.4±0.3 g in drug-treated mice vs 2.5±0.1 g in controls (P=0.5)]. Throughout the treatment period, the drug-treated mice consumed 34.1±4.6 mg OSU-A9M per kg body weight per day, calculated as g diet consumed per day/g body weight×450 (overall mean±SD of weekly means).
# [9] = system: CAKI-1; experiment: NCI60 screening, Renal Cancer, CAKI-1; assay type: cell-based, human
# [10] = system: 786-0; experiment: NCI60 screening, Renal Cancer, 786-0; assay type: cell-based, human
# [11] = system: NCI-H460; experiment: NCI60 screening, Non-Small Cell Lung Cancer, NCI-H460; assay type: cell-based, human
# [12] = system: KM12; experiment: NCI60 screening, Colon Cancer, KM12; assay type: cell-based, human
# [13] = system: HCT-15; experiment: NCI60 screening, Colon Cancer, HCT-15; assay type: cell-based, human
# [14] = system: SW-620; experiment: NCI60 screening, Colon Cancer, SW-620; assay type: cell-based, human
# [15] = Homo sapiens, read-out: LC50 (the source's name)
# [16] = 450 ppm in diet, 6-week treatment, mean±SD, n=7
# [17] = 450 ppm in diet, 18 to 24 weeks of age, mean±SD, n=5
compound,measurement,setting,value
"Cc1ccc2c(c1)c(CO)cn2S(=O)(=O)c1ccc(Cl)c([N+](=O)[O-])c1 [OSU-A9M, [1-(4-chloro-3-nitro-benzenesulfonyl)-5-methyl-1H-indol-3-yl]-methanol]",TGI,[1],3.13E−6
same,GI50,[1]; Homo sapiens,1.67 µM
same,CC50,[1]; [15],5.89 µM
same,Percent Growth,[1]; Log10 Concentration −4.0,−92%
same,Percent Growth,[1]; Log10 Concentration −5.0,−92%
same,Percent Growth,[1]; Log10 Concentration −6.0,91%
same,Percent Growth,[1]; Log10 Concentration −7.0,87%
same,Percent Growth,[1]; Log10 Concentration −8.0,85%
same,TGI,[2],3.07E−6
same,GI50,[2]; Homo sapiens,1.62 µM
same,CC50,[2]; [15],5.81 µM
same,Percent Growth,[2]; Log10 Concentration −4.0,−86%
same,Percent Growth,[2]; Log10 Concentration −5.0,−93%
same,Percent Growth,[2]; Log10 Concentration −6.0,88%
same,Percent Growth,[2]; Log10 Concentration −7.0,91%
same,Percent Growth,[2]; Log10 Concentration −8.0,77%
same,TGI,[3],2.96E−6
same,GI50,[3]; Homo sapiens,1.44 µM
same,CC50,[3]; [15],6.1 µM
same,Percent Growth,[3]; Log10 Concentration −4.0,−78%
same,Percent Growth,[3]; Log10 Concentration −5.0,−84%
same,Percent Growth,[3]; Log10 Concentration −6.0,75%
same,Percent Growth,[3]; Log10 Concentration −7.0,91%
same,Percent Growth,[3]; Log10 Concentration −8.0,98%
same,TGI,[4],2.73E−6
same,GI50,[4]; Homo sapiens,1.42 µM
same,CC50,[4]; [15],5.23 µM
same,Percent Growth,[4]; Log10 Concentration −4.0,−99%
same,Percent Growth,[4]; Log10 Concentration −5.0,−100%
same,Percent Growth,[4]; Log10 Concentration −6.0,77%
same,Percent Growth,[4]; Log10 Concentration −7.0,91%
same,Percent Growth,[4]; Log10 Concentration −8.0,96%
same,TGI,[5],3.06E−6
same,GI50,[5]; Homo sapiens,1.67 µM
same,CC50,[5]; [15],5.62 µM
same,Percent Growth,[5]; Log10 Concentration −4.0,−100%
same,Percent Growth,[5]; Log10 Concentration −5.0,−97%
same,Percent Growth,[5]; Log10 Concentration −6.0,92%
same,Percent Growth,[5]; Log10 Concentration −7.0,97%
same,Percent Growth,[5]; Log10 Concentration −8.0,95%
same,TGI,[6],2.93E−6
same,GI50,[6]; Homo sapiens,1.52 µM
same,LC50 (50% lethal concentration),[6]; Homo sapiens,5.64 µM
same,Percent Growth,[6]; Log10 Concentration −4.0,−92%
same,Percent Growth,[6]; Log10 Concentration −5.0,−94%
same,Percent Growth,[6]; Log10 Concentration −6.0,82%
same,Percent Growth,[6]; Log10 Concentration −7.0,87%
same,Percent Growth,[6]; Log10 Concentration −8.0,95%
same,TGI,[7],3.95E−6
same,GI50,[7]; Homo sapiens,1.93 µM
same,CC50,[7]; [15],8.09 µM
same,Percent Growth,[7]; Log10 Concentration −4.0,−84%
same,Percent Growth,[7]; Log10 Concentration −5.0,−65%
same,Percent Growth,[7]; Log10 Concentration −6.0,96%
same,Percent Growth,[7]; Log10 Concentration −7.0,101%
same,Percent Growth,[7]; Log10 Concentration −8.0,97%
same,Amount of diet consumed,[8]; 450 ppm experimental diet,2.4 ± 0.3 g
same,Liver percent body weight,[8]; [16],3.9±0.5%
same,Liver weight (absolute),[8]; [16],1.3 ± 0.1 g
same,ALP,[8]; [17],70.0 ± 14.6 iu/L
same,ALT,[8]; [17],25.8 ± 8.0 iu/L
same,AST,[8]; [17],69.6 ± 27.2 iu/L
same,Albumin,[8]; [17],3.6 ± 0.2 g/dL
same,BUN,[8]; [17],23.6 ± 2.9 mg/dL
same,CK,[8]; [17],222.2 ± 144.5 iu/L
same,Calcium,[8]; [17],10.7 ± 0.2 mg/dL
same,Cholesterol,[8]; [17],193.4 ± 28.1 mg/dL
same,Creatinine,[8]; [17],0.1 ± 0.0 mg/dL
same,Globulin,[8]; [17],2.2 ± 0.1 g/dL
same,Glucose,[8]; [17],301.8 ± 53.6 mg/dL
same,Lymphocytes,[8]; [17],9.8 ± 3.1 ×10^3/μl
same,Nucleated cells,[8]; [17],11.4 ± 3.7 ×10^3/μl
same,PCV,[8]; [17],44.4 ± 1.1%
same,Phosphorus,[8]; [17],6.5 ± 0.5 mg/dL
same,Platelets,[8]; [17],327.2 ± 310.0 ×10^3/μl
same,Potassium,[8]; [17],6.9 ± 0.4 mEq/L
same,RBC,[8]; [17],10.3 ± 0.3 ×10^6/μl
same,Segmented neutrophils,[8]; [17],1.3 ± 0.5 ×10^3/μl
same,Total Bilirubin,[8]; [17],0.2 ± 0.0 mg/dL
same,Total Protein,[8]; [17],5.8 ± 0.3 g/dL
same,Complete cell blood counts and serum chemistry profiles,"[8]; 450 ppm in diet, in words",none of the measured parameters are affected by drug treatment
same,TGI,[9],2.90E−6
same,GI50,[9]; Homo sapiens,1.48 µM
same,CC50,[9]; [15],5.7 µM
same,Percent Growth,[9]; Log10 Concentration −4.0,−95%
same,Percent Growth,[9]; Log10 Concentration −5.0,−92%
same,Percent Growth,[9]; Log10 Concentration −6.0,79%
same,Percent Growth,[9]; Log10 Concentration −7.0,95%
same,Percent Growth,[9]; Log10 Concentration −8.0,92%
same,TGI,[10],3.22E−6
same,GI50,[10]; Homo sapiens,1.78 µM
same,CC50,[10]; [15],5.83 µM
same,Percent Growth,[10]; Log10 Concentration −4.0,−100%
same,Percent Growth,[10]; Log10 Concentration −5.0,−95%
same,Percent Growth,[10]; Log10 Concentration −6.0,98%
same,Percent Growth,[10]; Log10 Concentration −7.0,98%
same,Percent Growth,[10]; Log10 Concentration −8.0,96%
same,TGI,[11],3.36E−6
same,GI50,[11]; Homo sapiens,1.83 µM
same,LC50 (concentration killing 50% of cells),[11]; Homo sapiens,6.18 µM
same,Percent Growth,[11]; Log10 Concentration −4.0,−89%
same,Percent Growth,[11]; Log10 Concentration −5.0,−89%
same,Percent Growth,[11]; Log10 Concentration −6.0,100%
same,Percent Growth,[11]; Log10 Concentration −7.0,99%
same,Percent Growth,[11]; Log10 Concentration −8.0,96%
same,TGI,[12],2.97E−6
same,GI50,[12]; Homo sapiens,1.62 µM
same,CC50,[12]; [15],5.45 µM
same,Percent Growth,[12]; Log10 Concentration −4.0,−100%
same,Percent Growth,[12]; Log10 Concentration −5.0,−100%
same,Percent Growth,[12]; Log10 Concentration −6.0,90%
same,Percent Growth,[12]; Log10 Concentration −7.0,97%
same,Percent Growth,[12]; Log10 Concentration −8.0,105%
same,TGI,[13],2.82E−6
same,GI50,[13]; Homo sapiens,1.5 µM
same,CC50,[13]; [15],5.31 µM
same,Percent Growth,[13]; Log10 Concentration −4.0,−100%
same,Percent Growth,[13]; Log10 Concentration −5.0,−100%
same,Percent Growth,[13]; Log10 Concentration −6.0,82%
same,Percent Growth,[13]; Log10 Concentration −7.0,94%
same,Percent Growth,[13]; Log10 Concentration −8.0,92%
same,TGI,[14],2.44E−6
same,GI50,[14]; Homo sapiens,1.21 µM
same,CC50,[14]; [15],4.94 µM
same,Percent Growth,[14]; Log10 Concentration −4.0,−100%
same,Percent Growth,[14]; Log10 Concentration −5.0,−100%
same,Percent Growth,[14]; Log10 Concentration −6.0,63%
same,Percent Growth,[14]; Log10 Concentration −7.0,90%
same,Percent Growth,[14]; Log10 Concentration −8.0,96%
